Data set [1] deals with male ddy-std. strain mice. As to the kind of experiment: Acute toxicity test in mice. The note with it: intraperitoneal, suspended in 0.5% tragacanth. Format: in vivo. As for the experimental part:
The male ddy-std. strain mice (4 weeks of age, weighing 19-21 g) were placed in a breeding room of constant temperature and humidity (23±1° C., 55±5%) and fed freely pellet diet (CE-2, Clea Japan, Inc.) and water ad. libitum for a week. The mice showing the normal growth were selected for the experiment.
Test compound is suspended in 0.5% tragacanth solution, and administered intraperitoneally in a dose of 0.5 ml per 20 g B.W.

Data set [2] has as its system angiotensin I-converting enzyme. As to the kind of experiment: Percent inhibition of pressor response to angiotensin I in unanesthetized rats after oral administration (ACE inhibition in vivo). Conditions: mg/kg: 2 1.8, 2A 1.3, 2B 1.8, 22 1.5, 22A 1.0, 22B 1.4, 32 1.7, 32C 1.3, 64 1.9. Also noted: species or system Male Wistar strain rats. As to the method:
As recently it has been clear that the compounds inhibiting angiotensin I-converting enzyme may be the curative potency against both renal hypertension and essential hypertension, the compounds of this invention are evaluated as antihypertensive agents by the following method.
Male Wistar strain rats weighing 200-300 g were used. Under ether anesthesia, polyethylene cannulae are inserted into carotid artery and jugular vein. The cannula to carotid artery is connected to an electric transducer, while the cannula to jugular vein is connected to an apparatus for continuous infusion. After the complete recovery from anesthesia, angiotensin I is infused intravenously in a dose of 300 ng/kg by the apparatus for continuous infusion, and the pressor response is recorded by polygraph (Nihon Koden, RM-150). The compounds of this invention suspended in 0.5% tragacanth solution are addministered orally in a dose of 0.3 ml per 100 g of body weight, and the pressor response to angiotensin I infused intravenously is measured with time.

This is an account of results in patent publication US4496578A, “Antihypertensive sulfur-containing compounds” (Santen Pharmaceutical Co., Ltd., priority 1978, dated 1985).

As for `CC(=O)Oc1ccccc1C1SC[C@@H](C(=O)O)N1C(=O)CCSC(C)=O` (stereo partly drawn) [Compound 32, (4R)-2-(2-Acetoxyphenyl)-3-(S-acetyl-3-mercaptopropanoyl)-4-thiazolidinecarboxylic acid], the “acute toxicity, LD” value in data set [1] is listed as > 500 mg/kg. Also, the “Inhibition (%) of pressor response to angiotensin I” value in data set [2] (5 min after oral dose) amounted to 40.2%; in data set [2] (15 min after oral dose), 55.3%; in data set [2] (25 min after oral dose), 70.2%; in data set [2] (35 min after oral dose) it was 70.2%; in data set [2] (45 min after oral dose), 61.1%; in data set [2] (55 min after oral dose), 54.2%. For the same compound, the “Inhibition (%) of pressor response to angiotensin I” value in data set [2] (65 min after oral dose) worked out at 55.3%; in data set [2] (75 min after oral dose), 57.2%; in data set [2] (85 min after oral dose) it was 48.2%; in data set [2] (95 min after oral dose), 43.4%; in data set [2] (105 min after oral dose) it was 27.3%.
